Assays:
Format in all cases: cell-based
TRPML1 = TRPML1 (Homo sapiens, UniProt Q9GZU1); experiment: Fluorescent TRPML1 assay (Fluo4-AM calcium fluorescence in doxycycline-induced HEK-293 Trex cells)
Procedure, shortened: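 EC50 values come from non-linear regression of percent activity, normalized to on-plate positive and negative controls, with fluorescence read at 480 nm excitation and 540 nm emission. Fluo4-AM-loaded (1 µM) doxycycline-induced HEK-293 Trex cells expressing mutated human TRPML1 were exposed in 10 mM calcium Ringer's to 6 nM–20 µM compound, in triplicate.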

TRPML2 = molecular target: T1, TRPML2 (Homo sapiens, UniProt Q8IZK6); experiment: Fluorescent TRPML2 assay (performed as for TRPML1, substituting the TRPML2 subtype)
T1 construct: expressed in transfected cells
T1 sequence (Q8IZK6 1-566): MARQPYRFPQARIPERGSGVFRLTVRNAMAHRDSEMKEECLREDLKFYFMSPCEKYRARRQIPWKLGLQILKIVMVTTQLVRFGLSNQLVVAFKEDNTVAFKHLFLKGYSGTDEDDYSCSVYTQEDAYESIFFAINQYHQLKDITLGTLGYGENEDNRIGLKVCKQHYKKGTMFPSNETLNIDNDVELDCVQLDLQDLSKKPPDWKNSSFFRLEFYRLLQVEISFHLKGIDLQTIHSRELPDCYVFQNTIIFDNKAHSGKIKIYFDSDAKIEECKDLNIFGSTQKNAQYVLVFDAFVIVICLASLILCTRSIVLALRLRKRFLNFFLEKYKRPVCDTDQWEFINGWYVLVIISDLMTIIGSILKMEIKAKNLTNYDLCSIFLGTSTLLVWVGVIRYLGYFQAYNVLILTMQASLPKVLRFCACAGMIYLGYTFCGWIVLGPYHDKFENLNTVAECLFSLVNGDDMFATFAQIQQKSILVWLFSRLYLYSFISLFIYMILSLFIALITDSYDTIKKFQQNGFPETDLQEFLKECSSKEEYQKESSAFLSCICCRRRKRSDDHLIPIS
Procedure, shortened: (§1)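 Compound series (final 6 nM-20 μM, half-log, triplicate) were added to Fluo4-AM-loaded HEK-293 Trex cells in 10 mM calcium Ringer's, expressing the human TRPML subtype after doxycycline 0.5 ug/mL induction. Percent activity versus positive/negative controls from 480/540 nm fluorescence; EC50 by non-linear regression.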

TRPML3 = molecular target: T2, TRPML3 (Homo sapiens, UniProt Q8TDD5); experiment: Fluorescent TRPML3 assay (performed as for TRPML1, substituting the TRPML3 subtype)
T2 construct: expressed in transfected cells
T2 sequence (Q8TDD5 1-553): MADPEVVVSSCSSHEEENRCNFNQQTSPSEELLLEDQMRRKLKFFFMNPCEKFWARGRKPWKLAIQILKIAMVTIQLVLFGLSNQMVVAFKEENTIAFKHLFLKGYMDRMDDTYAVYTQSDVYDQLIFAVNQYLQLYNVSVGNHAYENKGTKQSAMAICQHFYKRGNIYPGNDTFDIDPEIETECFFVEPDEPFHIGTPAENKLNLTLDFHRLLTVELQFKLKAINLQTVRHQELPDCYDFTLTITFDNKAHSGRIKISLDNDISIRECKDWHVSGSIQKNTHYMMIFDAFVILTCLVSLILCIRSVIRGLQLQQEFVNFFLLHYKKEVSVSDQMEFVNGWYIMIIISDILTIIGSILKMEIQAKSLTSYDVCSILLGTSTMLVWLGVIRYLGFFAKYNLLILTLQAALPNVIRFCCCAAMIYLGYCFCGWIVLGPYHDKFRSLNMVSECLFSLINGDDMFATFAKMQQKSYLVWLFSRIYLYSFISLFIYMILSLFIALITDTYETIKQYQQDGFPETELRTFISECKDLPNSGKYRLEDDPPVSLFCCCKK
Procedure, shortened: as §1

Chain of TRPML1 (Q9GZU1 whole entry L15A/L16A/L577A/L578A, form open): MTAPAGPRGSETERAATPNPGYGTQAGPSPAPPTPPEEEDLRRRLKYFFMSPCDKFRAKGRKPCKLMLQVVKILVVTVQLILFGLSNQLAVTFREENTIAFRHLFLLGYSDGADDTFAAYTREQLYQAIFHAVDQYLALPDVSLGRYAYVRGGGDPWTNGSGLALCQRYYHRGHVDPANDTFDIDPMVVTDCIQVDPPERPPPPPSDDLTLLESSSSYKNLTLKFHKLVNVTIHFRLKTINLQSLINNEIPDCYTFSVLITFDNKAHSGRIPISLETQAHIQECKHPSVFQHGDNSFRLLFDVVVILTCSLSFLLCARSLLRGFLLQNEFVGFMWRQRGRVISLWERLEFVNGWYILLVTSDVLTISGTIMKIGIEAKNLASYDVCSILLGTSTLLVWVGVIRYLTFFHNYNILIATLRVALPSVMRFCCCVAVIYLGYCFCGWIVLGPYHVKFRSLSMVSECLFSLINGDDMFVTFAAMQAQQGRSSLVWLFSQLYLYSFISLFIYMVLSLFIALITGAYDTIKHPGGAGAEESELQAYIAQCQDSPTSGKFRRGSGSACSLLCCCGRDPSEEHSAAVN

| EC50 (TRPML1) [nM] | EC50 (TRPML2) [nM] | EC50 (TRPML3) [nM] | Structure (SMILES) |
| --- | --- | --- | --- |
| 500 to 2000 | > 2000 | 500 to 2000 | C[C@@H]1CN(c2ncnc3c2c(C(F)F)cn3C2CCCC(C#N)C2)[C@@H](C)CN1C(=O)OC(C)(C)C (stereo partly drawn) [Compound 633, tert-butyl (2R,5S)-4-(7-(3-cyanocyclohexyl)-5-(difluoromethyl)-7H-pyrrolo[2,3-d]pyrimidin-4-yl)-2,5-dimethylpiperazine-1-carboxylate] |
| < 100 | 100 to 500 | 100 to 500 | C[C@@H]1CN(c2ncnc3c2c(N2CCC2)cn3-c2cccc(F)c2)[C@@H](C)CN1C(=O)OC(C)(C)C [Compound 635, tert-butyl (2R,5S)-4-(5-(azetidin-1-yl)-7-(3-fluorophenyl)-7H-pyrrolo[2,3-d]pyrimidin-4-yl)-2,5-dimethylpiperazine-1-carboxylate] |
| < 100 | < 100 | < 100 | C[C@H]1CN(C(=O)OC(C)(C)C)CCN1c1ncnc2c1c(N1CCC1)cn2-c1cccc(F)c1 [Compound 636, tert-butyl (S)-4-(5-(azetidin-1-yl)-7-(3-fluorophenyl)-7H-pyrrolo[2,3-d]pyrimidin-4-yl)-3-methylpiperazine-1-carboxylate] |
| < 100 | 100 to 500 | < 100 | C[C@H]1CN(C(=O)OC(C)(C)C)CCN1c1nccc2c1c(N1CCC1)cn2-c1cccc(F)c1 [Compound 637, tert-butyl (S)-4-(3-(azetidin-1-yl)-1-(3-fluorophenyl)-1H-pyrrolo[3,2-c]pyridin-4-yl)-3-methylpiperazine-1-carboxylate] |
| < 100 | 100 to 500 | < 100 | C[C@@H]1CN(c2nccc3c2c(N2CCC2)cn3-c2cccc(F)c2)[C@@H](C)CN1C(=O)OC(C)(C)C [Compound 638] |
| < 100 | < 100 | < 100 | C[C@H]1CN(C(=O)OC(C)(C)C)CCN1c1ncnc2c1c(C1CCC1)cn2-c1cccc(F)c1 [Compound 641, tert-butyl (S)-4-(5-cyclobutyl-7-(3-fluorophenyl)-7H-pyrrolo[2,3-d]pyrimidin-4-yl)-3-methylpiperazine-1-carboxylate] |
| 100 to 500 | 500 to 2000 | 100 to 500 | COc1ccnc(-n2cc(C3CC3)c3c(N4C[C@@H](C)N(C(=O)OC(C)(C)C)C[C@@H]4C)ncnc32)c1 [Compound 642, tert-butyl (2R,5S)-4-(5-cyclopropyl-7-(4-methoxypyridin-2-yl)-7H-pyrrolo[2,3-d]pyrimidin-4-yl)-2,5-dimethylpiperazine-1-carboxylate] |
| 100 to 500 | 500 to 2000 | 100 to 500 | C[C@@H]1CN(c2ncnc3c2c(C2CC2)cn3-c2ccccn2)[C@@H](C)CN1C(=O)OC(C)(C)C [Compound 643, tert-butyl (2R,5S)-4-(5-cyclopropyl-7-(pyridin-2-yl)-7H-pyrrolo[2,3-d]pyrimidin-4-yl)-2,5-dimethylpiperazine-1-carboxylate] |
| 100 to 500 | 500 to 2000 | 100 to 500 | Cc1ccnc(-n2cc(C3CC3)c3c(N4C[C@@H](C)N(C(=O)OC(C)(C)C)C[C@@H]4C)ncnc32)c1 [Compound 644, tert-butyl (2R,5S)-4-(5-cyclopropyl-7-(4-methylpyridin-2-yl)-7H-pyrrolo[2,3-d]pyrimidin-4-yl)-2,5-dimethylpiperazine-1-carboxylate] |
| 100 to 500 | 100 to 500 | 100 to 500 | C[C@@H]1CN(c2ncnc3c2c(C2CCC2)cn3-c2cccc(C(F)(F)F)c2)[C@@H](C)CN1C(=O)OC(C)(C)C [Compound 645, tert-butyl (2R,5S)-4-(5-cyclobutyl-7-(3-(trifluoromethyl)phenyl)-7H-pyrrolo[2,3-d]pyrimidin-4-yl)-2,5-dimethylpiperazine-1-carboxylate] |
| 500 to 2000 | > 2000 | 100 to 500 | C[C@@H]1CN(c2ncnc3c2c(C2CCC2)cn3-c2cccc(F)c2)[C@@H](C)CN1C(=O)OC(C)(C)C [Compound 646, tert-butyl (2R,5S)-4-(5-cyclobutyl-7-(3-fluorophenyl)-7H-pyrrolo[2,3-d]pyrimidin-4-yl)-2,5-dimethylpiperazine-1-carboxylate] |
| 100 to 500 | 500 to 2000 | 500 to 2000 | C[C@@H]1CN(c2ncnc3c2c(C2CCC2)cn3-c2cccc(Cl)c2)[C@@H](C)CN1C(=O)OC(C)(C)C [Compound 647, tert-butyl (2R,5S)-4-(7-(3-chlorophenyl)-5-cyclobutyl-7H-pyrrolo[2,3-d]pyrimidin-4-yl)-2,5-dimethylpiperazine-1-carboxylate] |

Further lines, the compound ahead of its results:

| Structure (SMILES) | EC50 (TRPML1) [nM] | EC50 (TRPML2) [nM] | EC50 (TRPML3) [nM] |
| --- | --- | --- | --- |
| C[C@@H]1CN(c2ncnc3c2c(CC(F)(F)F)cn3-c2cc(C#N)ncn2)[C@@H](C)CN1C(=O)OC(C)(C)C [Compound 618, tert-butyl (2R,5S)-4-(7-(6-cyanopyrimidin-4-yl)-5-(2,2,2-trifluoroethyl)-7H-pyrrolo[2,3-d]pyrimidin-4-yl)-2,5-dimethylpiperazine-1-carboxylate] | < 100 | 100 to 500 | < 100 |
| C[C@@H]1CN(c2ncnc3c2c(CC(F)(F)F)cn3-c2cc(C#N)ccn2)[C@@H](C)CN1C(=O)OC(C)(C)C [Compound 619] | < 100 | 500 to 2000 | < 100 |
| C[C@@H]1CN(c2nccc3c2c(C(F)(F)F)cn3-c2cc(C#N)ccn2)[C@@H](C)CN1C(=O)OC(C)(C)C [Compound 620, tert-butyl (2R,5S)-4-(1-(4-cyanopyridin-2-yl)-3-(trifluoromethyl)-1H-pyrrolo[3,2-c]pyridin-4-yl)-2,5-dimethylpiperazine-1-carboxylate] | < 100 | 100 to 500 | < 100 |
| [2H]C([2H])([2H])C(OC(=O)N1C[C@H](C)N(c2nccc3c2c(C(F)(F)F)cn3-c2cc(C#N)ccn2)C[C@H]1C)(C([2H])([2H])[2H])C([2H])([2H])[2H] [Compound 623, 2-(methyl-d3)propan-2-yl-1,1,1,3,3,3-d6 (2R,5S)-4-(1-(4-cyanopyridin-2-yl)-3-(trifluoromethyl)-1H-pyrrolo[3,2-c]pyridin-4-yl)-2,5-dimethylpiperazine-1-carboxylate] | < 100 | 500 to 2000 | < 100 |
| C[C@@H]1CN(c2nccc3c2c(C(F)F)cn3-c2cc(C#N)ccn2)[C@@H](C)CN1C(=O)OC(C)(C)C [Compound 624, tert-butyl (2R,5S)-4-(1-(4-cyanopyridin-2-yl)-3-(difluoromethyl)-1H-pyrrolo[3,2-c]pyridin-4-yl)-2,5-dimethylpiperazine-1-carboxylate] | 100 to 500 | > 2000 | 100 to 500 |
| C[C@@H]1CN(c2ncnc3c2c(C(F)(F)F)cn3C2CCCCC2)[C@@H](C)CN1C(=O)OC(C)(C)C [Compound 625, tert-butyl (2R,5S)-4-(7-cyclohexyl-5-(trifluoromethyl)-7H-pyrrolo[2,3-d]pyrimidin-4-yl)-2,5-dimethylpiperazine-1-carboxylate] | 100 to 500 | > 2000 | > 2000 |
| C[C@@H]1CN(c2ncnc3c2c(C(F)F)cn3C2CCCCC2)[C@@H](C)CN1C(=O)OC(C)(C)C [Compound 627, tert-butyl (2R,5S)-4-(7-cyclohexyl-5-(difluoromethyl)-7H-pyrrolo[2,3-d]pyrimidin-4-yl)-2,5-dimethylpiperazine-1-carboxylate] | 100 to 500 | > 2000 | 100 to 500 |
| C[C@@H]1CN(c2ncnc3c2c(C(F)(F)F)cn3C2CCCC(C#N)C2)[C@@H](C)CN1C(=O)OC(C)(C)C (stereo partly drawn) [Compound 629, tert-butyl (2R,5S)-4-(7-(3-cyanocyclohexyl)-5-(trifluoromethyl)-7H-pyrrolo[2,3-d]pyrimidin-4-yl)-2,5-dimethylpiperazine-1-carboxylate] | 500 to 2000 | > 2000 | 100 to 500 |
